# How the values were obtained:
# [1] = AUCtot in CD-1 mouse at 3 mg/kg, po by LC/MS analysis; type: ADME, organism-based; set-up: time AUCmax, route oral, dose 3 mg/kg; settings: in vivo
# [2] = Cmax in CD-1 mouse at 3 mg/kg, po by LC/MS analysis; type: ADME, organism-based; set-up: route oral, dose 3 mg/kg; settings: in vivo
# Eosinophil peroxidase = biological target: T1, Eosinophil peroxidase (Homo sapiens, UniProt P11678); test: Inhibition of human EPX bromination activity using tyrosine as substrate by measuring 3-bromo tyrosine formation incubated for 10 mins
# T1 sequence (P11678 whole entry): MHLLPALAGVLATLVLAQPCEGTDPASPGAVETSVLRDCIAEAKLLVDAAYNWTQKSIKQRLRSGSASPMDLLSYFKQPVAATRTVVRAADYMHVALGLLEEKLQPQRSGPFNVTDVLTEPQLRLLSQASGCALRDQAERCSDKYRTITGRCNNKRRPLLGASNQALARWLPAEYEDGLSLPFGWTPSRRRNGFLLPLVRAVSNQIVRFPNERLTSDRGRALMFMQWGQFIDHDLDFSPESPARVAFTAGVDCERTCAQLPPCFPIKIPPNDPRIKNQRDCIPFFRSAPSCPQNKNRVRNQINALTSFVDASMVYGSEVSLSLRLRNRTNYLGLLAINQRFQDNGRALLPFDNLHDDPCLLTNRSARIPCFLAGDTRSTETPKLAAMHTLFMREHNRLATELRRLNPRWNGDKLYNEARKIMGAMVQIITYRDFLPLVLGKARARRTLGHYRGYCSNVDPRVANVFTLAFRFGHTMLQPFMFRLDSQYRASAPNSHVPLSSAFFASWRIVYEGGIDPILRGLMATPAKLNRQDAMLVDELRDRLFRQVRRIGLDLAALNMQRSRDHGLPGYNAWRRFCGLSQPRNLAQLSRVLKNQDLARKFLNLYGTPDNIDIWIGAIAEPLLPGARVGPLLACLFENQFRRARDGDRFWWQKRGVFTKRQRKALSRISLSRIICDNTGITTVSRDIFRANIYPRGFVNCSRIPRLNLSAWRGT
# Myeloperoxidase = biological target: T2, Myeloperoxidase (Mus musculus, UniProt P11247); test: Inhibition of PMA-induced MPO in mouse Neutrophil incubated for 3 mins by luminometry; type: tissue-based
# T2 sequence (P11247 whole entry): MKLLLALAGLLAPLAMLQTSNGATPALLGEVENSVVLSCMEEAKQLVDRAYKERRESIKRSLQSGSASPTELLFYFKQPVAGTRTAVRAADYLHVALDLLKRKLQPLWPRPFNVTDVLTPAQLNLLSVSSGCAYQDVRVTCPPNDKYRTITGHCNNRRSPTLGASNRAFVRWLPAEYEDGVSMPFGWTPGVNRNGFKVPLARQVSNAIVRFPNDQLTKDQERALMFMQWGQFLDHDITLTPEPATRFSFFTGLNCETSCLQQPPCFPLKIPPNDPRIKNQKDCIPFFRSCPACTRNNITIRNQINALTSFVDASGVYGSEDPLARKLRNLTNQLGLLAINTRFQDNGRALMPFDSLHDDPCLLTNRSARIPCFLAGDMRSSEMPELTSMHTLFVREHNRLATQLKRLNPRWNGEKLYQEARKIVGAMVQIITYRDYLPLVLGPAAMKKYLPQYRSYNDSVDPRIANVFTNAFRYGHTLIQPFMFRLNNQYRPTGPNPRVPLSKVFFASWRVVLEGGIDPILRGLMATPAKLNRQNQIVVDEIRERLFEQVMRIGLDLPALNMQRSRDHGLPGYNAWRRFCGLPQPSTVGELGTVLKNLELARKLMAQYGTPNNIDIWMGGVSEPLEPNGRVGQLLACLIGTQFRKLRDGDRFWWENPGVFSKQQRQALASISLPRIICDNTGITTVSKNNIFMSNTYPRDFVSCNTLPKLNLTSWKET
# Cytochrome P450 2D6 = Cytochrome P450 2D6 (Homo sapiens, UniProt P10635); test: Inhibition of CYP2D6 (unknown origin); type: ADME
# [3] = Plasma concentration in human MPO transgenic thioglycollate-induced peritonitis mouse model at 10 mg/kg, po measured after 6 hrs by LC/MS analysis; type: ADME, organism-based
# [4] = Protein binding in mouse plasma assessed as free fraction; type: ADME, cell-free
# [5] = biological target: T3, Methylated-DNA--protein-cysteine methyltransferase (Homo sapiens, UniProt P16455); test: Inhibition of human MGMT using 06-benzylguanine as substrate incubated for 30 mins by LC/MS analysis; settings: 0.5 h
# T3 sequence (P16455 whole entry): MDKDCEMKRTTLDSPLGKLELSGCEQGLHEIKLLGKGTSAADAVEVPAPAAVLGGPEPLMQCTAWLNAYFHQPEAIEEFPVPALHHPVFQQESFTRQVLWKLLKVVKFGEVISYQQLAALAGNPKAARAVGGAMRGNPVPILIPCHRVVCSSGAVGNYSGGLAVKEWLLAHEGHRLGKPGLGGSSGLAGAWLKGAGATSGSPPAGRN
# Cytochrome P450 3A4 = Cytochrome P450 3A4 (Homo sapiens, UniProt P08684); test: Inhibition of CYP3A4 (unknown origin); type: ADME
# animal or person = settings: Mus musculus, po, 6 h, read-out: INH
# [6] = Plasma concentration in human MPO transgenic thioglycollate-induced peritonitis mouse model at 30 mg/kg, po measured after 6 hrs by LC/MS analysis; type: ADME, organism-based
# Cytochrome P450 3A4, sequence (P08684 whole entry): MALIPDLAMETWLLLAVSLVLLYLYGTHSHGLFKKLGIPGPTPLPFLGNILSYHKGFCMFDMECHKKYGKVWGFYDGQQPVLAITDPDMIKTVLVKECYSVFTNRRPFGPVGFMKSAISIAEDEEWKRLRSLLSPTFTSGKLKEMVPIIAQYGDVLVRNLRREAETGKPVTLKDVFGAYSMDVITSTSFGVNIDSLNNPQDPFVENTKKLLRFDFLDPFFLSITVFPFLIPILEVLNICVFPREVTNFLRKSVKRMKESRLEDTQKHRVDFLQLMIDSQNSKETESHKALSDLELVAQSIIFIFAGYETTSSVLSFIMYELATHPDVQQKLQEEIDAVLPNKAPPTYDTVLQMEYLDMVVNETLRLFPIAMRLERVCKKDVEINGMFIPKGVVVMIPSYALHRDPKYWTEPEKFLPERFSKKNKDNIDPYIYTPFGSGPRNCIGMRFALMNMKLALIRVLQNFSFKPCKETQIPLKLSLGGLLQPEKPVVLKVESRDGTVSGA
# Cytochrome P450 2D6, sequence (P10635 whole entry): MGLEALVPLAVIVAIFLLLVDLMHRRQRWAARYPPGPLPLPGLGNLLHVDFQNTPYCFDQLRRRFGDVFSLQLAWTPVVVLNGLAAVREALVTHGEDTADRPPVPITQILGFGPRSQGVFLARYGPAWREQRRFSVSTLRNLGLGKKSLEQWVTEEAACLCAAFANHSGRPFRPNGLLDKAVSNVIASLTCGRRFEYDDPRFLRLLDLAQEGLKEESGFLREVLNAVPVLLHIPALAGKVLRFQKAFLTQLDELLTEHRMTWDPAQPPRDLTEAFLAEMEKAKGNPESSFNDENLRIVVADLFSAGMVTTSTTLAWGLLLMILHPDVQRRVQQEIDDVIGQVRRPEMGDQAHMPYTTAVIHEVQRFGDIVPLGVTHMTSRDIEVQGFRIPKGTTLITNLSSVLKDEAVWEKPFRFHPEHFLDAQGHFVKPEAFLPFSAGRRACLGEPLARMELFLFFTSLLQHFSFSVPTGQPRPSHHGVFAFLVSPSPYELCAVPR
compound,measurement,setting,value
Nc1cc(Cc2ccccc2)c2nn[nH]c2n1,AUC,[1],47.9 µM·h
same,Cmax,[2],13 µM
same,IC50,Eosinophil peroxidase,32 nM
same,IC50,Myeloperoxidase,9.5 µM
same,IC50,Cytochrome P450 2D6,> 10 µM
same,concentration at 6 h,[3],7 µM
same,fraction unbound,[4],0.36
same,inhibition (INH),[5],Not Active
same,IC50,Cytochrome P450 3A4,6.6 µM
same,inhibition in vivo at 30 mg/kg,animal or person,55%
same,concentration at 6 h,[6],26 µM

# From ChEMBL document CHEMBL4699540, “Discovery and structure activity relationships of 7-benzyl triazolopyridines as stable, selective, and reversible inhibitors of myeloperoxidase” (Bioorg Med Chem, 2020)
